The source of these data is publication PMC5218480 (PLoS ONE, 2017).

The subject of this assay is MV-4-11 cells. Briefly: Gene expression microarray analysis (Affymetrix PrimeView) and GSEA. In kind it is cell-based, human. Further details: RFU PODN (11730768_x_at) / Fold change /veh PODN (11730768_x_at) / RFU LINC00158 (11744669_a_at) / Fold change /veh LINC00158 (11744669_a_at) / RFU DUSP10 (11751237_a_at) / Fold change /veh DUSP10 (11751237_a_at) / RFU ID3 (11757404_x_at) / Fold change /veh ID3 (11757404_x_at) / RFU PLEKHG5 (11737974_s_at) / Fold change /veh PLEKHG5 (11737974_s_at) / RFU LRRC4B (11730491_at) / Fold change /veh LRRC4B (11730491_at) / RFU GIMAP4 (11747438_a_at) / Fold change /veh GIMAP4 (11747438_a_at) / RFU KRT8 (11758183_x_at) / Fold change /veh KRT8 (11758183_x_at) / RFU CNN1 (11734310_a_at) / Fold change /veh CNN1 (11734310_a_at) / RFU VPS37D (11726825_at) / Fold change /veh VPS37D (11726825_at) / RFU C10orf10 (11716522_x_at) / Fold change /veh C10orf10 (11716522_x_at) / RFU KIR2DL2 /// KIR2DL4 /// KIR2DL5A /// KIR2DL5B /// KIR2DS1 /// KIR2DS2 /// KIR2DS3 /// KIR2DS4 /// KIR3DL3 /// KIR3DL3 /// KIR3DS1 (11738374_at) / Fold change /veh KIR2DL2 /// KIR2DL4 /// KIR2DL5A /// KIR2DL5B /// KIR2DS1 /// KIR2DS2 /// KIR2DS3 /// KIR2DS4 /// KIR3DL3 /// KIR3DL3 /// KIR3DS1 (11738374_at) / RFU C1QL1 (11718748_at) / Fold change /veh C1QL1 (11718748_at) / RFU TMPRSS4 (11747572_a_at) / Fold change /veh TMPRSS4 (11747572_a_at) / RFU HAMP (11756126_x_at) / Fold change /veh HAMP (11756126_x_at) / RFU RNFT2 (11725882_a_at) / Fold change /veh RNFT2 (11725882_a_at) / RFU NR4A2 (11747474_a_at) / Fold change /veh NR4A2 (11747474_a_at) / RFU ABCC12 (11746883_a_at) / Fold change /veh ABCC12 (11746883_a_at) / RFU TMEM136 (11760407_x_at) / Fold change /veh TMEM136 (11760407_x_at) / RFU CLDN22 /// WWC2 (11732394_at) / Fold change /veh CLDN22 /// WWC2 (11732394_at) / RFU HLA-DPB1 (11760878_x_at) / Fold change /veh HLA-DPB1 (11760878_x_at) / RFU SPINT1 (11716480_a_at) / Fold change /veh SPINT1 (11716480_a_at) / RFU GAP43 (11754022_s_at) / Fold change /veh GAP43 (11754022_s_at) / RFU A4GNT (11735810_at) / Fold change /veh A4GNT (11735810_at) / RFU PRB3 (11715151_x_at) / Fold change /veh PRB3 (11715151_x_at) / RFU TUBB4B (11761932_at) / Fold change /veh TUBB4B (11761932_at) / RFU CAPN14 (11732068_a_at) / Fold change /veh CAPN14 (11732068_a_at) / RFU TMCC2 (11721928_a_at) / Fold change /veh TMCC2 (11721928_a_at) / RFU IRGQ (11745062_a_at) / Fold change /veh IRGQ (11745062_a_at) / RFU FAM174B (11720279_a_at) / Fold change /veh FAM174B (11720279_a_at) / RFU TMPRSS4 (11748680_a_at) / Fold change /veh TMPRSS4 (11748680_a_at) / RFU FAM212B (11763350_a_at) / Fold change /veh FAM212B (11763350_a_at) / RFU PLEKHG5 (11743358_a_at) / Fold change /veh PLEKHG5 (11743358_a_at) / RFU ZSCAN30 (11745921_a_at) / Fold change /veh ZSCAN30 (11745921_a_at) / RFU CMKLR1 (11741424_a_at) / Fold change /veh CMKLR1 (11741424_a_at) / RFU LOC101060620 /// MAPK8IP1 (11723275_at) / Fold change /veh LOC101060620 /// MAPK8IP1 (11723275_at) / RFU SPTSSB (11747773_x_at) / Fold change /veh SPTSSB (11747773_x_at) / RFU PRSS12 (11739890_at) / Fold change /veh PRSS12 (11739890_at) / RFU BIN1 (11741810_x_at) / Fold change /veh BIN1 (11741810_x_at) / RFU WNT11 (11732464_a_at) / Fold change /veh WNT11 (11732464_a_at) / RFU C10orf10 (11716521_a_at) / Fold change /veh C10orf10 (11716521_a_at) / RFU C5orf56 (11738089_at) / Fold change /veh C5orf56 (11738089_at) / RFU CYB561 (11721691_x_at) / Fold change /veh CYB561 (11721691_x_at) / RFU ANKRD19P (11752326_a_at) / Fold change /veh ANKRD19P (11752326_a_at) / RFU OR2T12 /// OR2T33 /// OR2T8 (11738714_s_at) / Fold change /veh OR2T12 /// OR2T33 /// OR2T8 (11738714_s_at) / RFU VCAN (11748164_a_at) / Fold change /veh VCAN (11748164_a_at) / RFU JSRP1 (11732532_at) / Fold change /veh JSRP1 (11732532_at) / RFU KRTAP10-11 (11738290_x_at) / Fold change /veh KRTAP10-11 (11738290_x_at) / RFU MYO3A (11730013_a_at) / Fold change /veh MYO3A (11730013_a_at) / RFU EBF3 (11725865_a_at) / Fold change /veh EBF3 (11725865_a_at) / RFU CAMK2N1 (11719241_x_at) / Fold change /veh CAMK2N1 (11719241_x_at) / RFU C5orf56 (11738088_a_at) / Fold change /veh C5orf56 (11738088_a_at) / RFU OLFML3 (11715873_a_at) / Fold change /veh OLFML3 (11715873_a_at) / RFU LOC100653217 /// NTM (11731650_a_at) / Fold change /veh LOC100653217 /// NTM (11731650_a_at) / RFU MAPK11 (11762145_a_at) / Fold change /veh MAPK11 (11762145_a_at) / RFU FIZ1 (11724087_x_at) / Fold change /veh FIZ1 (11724087_x_at) / RFU OASL (11726364_x_at) / Fold change /veh OASL (11726364_x_at) / RFU SOX15 (11748057_x_at) / Fold change /veh SOX15 (11748057_x_at) / RFU CD79A (11719716_a_at) / Fold change /veh CD79A (11719716_a_at) / RFU HIST1H1D (11736915_at) / Fold change /veh HIST1H1D (11736915_at) / RFU CASKIN2 (11723855_a_at) / Fold change /veh CASKIN2 (11723855_a_at) / RFU LOC730098 (11760151_x_at) / Fold change /veh LOC730098 (11760151_x_at) / RFU OR4N2 (11742367_at) / Fold change /veh OR4N2 (11742367_at) / RFU PRRT2 (11749266_a_at) / Fold change /veh PRRT2 (11749266_a_at) / RFU SNX32 (11753110_a_at) / Fold change /veh SNX32 (11753110_a_at) / RFU CDHR5 (11726645_a_at) / Fold change /veh CDHR5 (11726645_a_at) / RFU RCAN1 (11760418_a_at) / Fold change /veh RCAN1 (11760418_a_at) / RFU FAM167A (11723789_a_at) / Fold change /veh FAM167A (11723789_a_at) / RFU FAM26E (11764081_at) / Fold change /veh FAM26E (11764081_at) / RFU ISYNA1 (11749810_s_at) / Fold change /veh ISYNA1 (11749810_s_at) / RFU ACY1 (11761880_at) / Fold change /veh ACY1 (11761880_at) / RFU 11764098_at / Fold change /veh 11764098_at / RFU SAMD14 (11745864_x_at) / Fold change /veh SAMD14 (11745864_x_at) / RFU NPB (11741838_a_at) / Fold change /veh NPB (11741838_a_at) / RFU TMPRSS6 (11731388_a_at) / Fold change /veh TMPRSS6 (11731388_a_at) / RFU KRTAP10-2 (11738614_at) / Fold change /veh KRTAP10-2 (11738614_at) / RFU ARHGAP8 /// PRR5-ARHGAP8 (11727945_x_at) / Fold change /veh ARHGAP8 /// PRR5-ARHGAP8 (11727945_x_at) / RFU KRTAP5-7 /// NADSYN1 (11734609_at) / Fold change /veh KRTAP5-7 /// NADSYN1 (11734609_at) / RFU RASL12 (11751679_a_at) / Fold change /veh RASL12 (11751679_a_at) / RFU CDKN2B (11736163_a_at) / Fold change /veh CDKN2B (11736163_a_at) / RFU PRF1 (11729649_at) / Fold change /veh PRF1 (11729649_at) / RFU, ZNF638 /// ZNF638-IT1 / Fold change vs veh, ZNF638 /// ZNF638-IT1 / RFU, PANK3 / Fold change vs veh, PANK3 / RFU, SH3YL1 / Fold change vs veh, SH3YL1 / RFU, ZEB2 / Fold change vs veh, ZEB2 / RFU, NRIP1 / Fold change vs veh, NRIP1 / RFU, PTTG1IP / Fold change vs veh, PTTG1IP / RFU, CAPN2 / Fold change vs veh, CAPN2 / RFU, MED14 / Fold change vs veh, MED14 / RFU, SNORA58 / Fold change vs veh, SNORA58 / RFU, C1orf63 / Fold change vs veh, C1orf63 / RFU, LRRFIP1 / Fold change vs veh, LRRFIP1 / RFU, NDUFAF7 / Fold change vs veh, NDUFAF7 / RFU, SLC12A2 / Fold change vs veh, SLC12A2 / RFU, IBTK / Fold change vs veh, IBTK / RFU, ESF1 / Fold change vs veh, ESF1 / Fold change vs veh, TMEM50B / RFU, TAOK1 / Fold change vs veh, TAOK1 / RFU, ACBD3 / Fold change vs veh, ACBD3 / RFU, TMA16 / Fold change vs veh, TMA16 / RFU, RWDD3 / Fold change vs veh, RWDD3 / RFU, BCAT1 / Fold change vs veh, BCAT1 / RFU, EDEM3 / Fold change vs veh, EDEM3 / RFU, TMEM33 / Fold change vs veh, TMEM33 / RFU, WDR75 / Fold change vs veh, WDR75 / RFU, AHCTF1 / Fold change vs veh, AHCTF1 / RFU, TFRC / Fold change vs veh, TFRC / RFU, ZDHHC17 / Fold change vs veh, ZDHHC17 / RFU, NOM1 / Fold change vs veh, NOM1 / RFU, ARL8B / Fold change vs veh, ARL8B / RFU, ZBTB11 / Fold change vs veh, ZBTB11 / RFU, TAMM41 / Fold change vs veh, TAMM41 / RFU, KIAA1704 /// LOC100996395 / Fold change vs veh, KIAA1704 /// LOC100996395 / RFU, ING1 / Fold change vs veh, ING1 / RFU, TRMT61B / Fold change vs veh, TRMT61B / RFU, FUBP3 / Fold change vs veh, FUBP3 / RFU, TP53 / Fold change vs veh, TP53 / RFU, TNKS2 / Fold change vs veh, TNKS2 / RFU, ZFP14 / Fold change vs veh, ZFP14 / RFU, ACTR2 / Fold change vs veh, ACTR2 / RFU, PPP3R1 / Fold change vs veh, PPP3R1 / RFU, PIK3R1 / Fold change vs veh, PIK3R1 / RFU, HNRNPA1 / Fold change vs veh, HNRNPA1 / RFU, RNF170 / Fold change vs veh, RNF170 / RFU, ZNF28 / Fold change vs veh, ZNF28 / RFU, RNGTT / Fold change vs veh, RNGTT / RFU, OGT / Fold change vs veh, OGT / RFU, BRD1 / Fold change vs veh, BRD1 / RFU, MARS / Fold change vs veh, MARS / RFU, ZNF655 / Fold change vs veh, ZNF655 / RFU, FAHD1 / Fold change vs veh, FAHD1 / RFU, BDP1 / Fold change vs veh, BDP1 / RFU, LRRCC1 / Fold change vs veh, LRRCC1 / RFU, ARID1A / Fold change vs veh, ARID1A / RFU, ZNF146 / Fold change vs veh, ZNF146 / RFU, ZNF330 / Fold change vs veh, ZNF330 / RFU, GPN3 / Fold change vs veh, GPN3 / RFU, C9orf123 / Fold change vs veh, C9orf123 / RFU, N4BP2L2 / Fold change vs veh, N4BP2L2 / RFU, ARFIP1 / Fold change vs veh, ARFIP1 / RFU, FAM179B / Fold change vs veh, FAM179B / RFU, BCL10 / Fold change vs veh, BCL10 / RFU, UHRF1BP1L / Fold change vs veh, UHRF1BP1L / RFU, BET1 / Fold change vs veh, BET1 / RFU, CNOT2 / Fold change vs veh, CNOT2 / RFU, ZNF268 / Fold change vs veh, ZNF268 / Fold change vs veh, ZNF507 / RFU, DGCR2 / Fold change vs veh, DGCR2 / RFU, WDSUB1 / Fold change vs veh, WDSUB1 / Fold change vs veh, HSP90B1 /// MIR3652 / RFU, ADSS / Fold change vs veh, ADSS / RFU, GK / Fold change vs veh, GK / RFU, ZNF148 / Fold change vs veh, ZNF148 / RFU, TAF9 / Fold change vs veh, TAF9 / RFU, SLC1A5 / Fold change vs veh, SLC1A5 / RFU, SLMO2 / Fold change vs veh, SLMO2 / RFU, ABCC4 / Fold change vs veh, ABCC4 / RFU, LOC101060439 /// RAP1B / Fold change vs veh, LOC101060439 /// RAP1B / RFU, RFX7 / Fold change vs veh, RFX7 / RFU, GTPBP10 / Fold change vs veh, GTPBP10 / RFU, CNEP1R1 / Fold change vs veh, CNEP1R1 / RFU, BIVM-ERCC5 /// ERCC5 / Fold change vs veh, BIVM-ERCC5 /// ERCC5 / RFU, ILF3 / Fold change vs veh, ILF3 / RFU 11762660_at / Fold change /veh 11762660_at / RFU VCAN (11757783_s_at) / Fold change /veh VCAN (11757783_s_at) / RFU DDX43 (11728927_at) / Fold change /veh DDX43 (11728927_at) / RFU KRT8 (11758188_x_at) / Fold change /veh KRT8 (11758188_x_at) / RFU NKD1 (11759106_at) / Fold change /veh NKD1 (11759106_at) / RFU SRD5A1 (11742802_a_at) / Fold change /veh SRD5A1 (11742802_a_at) / RFU TPSAB1 /// TPSB2 (11721975_s_at) / Fold change /veh TPSAB1 /// TPSB2 (11721975_s_at) / RFU GSTM3 (11746129_a_at) / Fold change /veh GSTM3 (11746129_a_at) / RFU IL23R (11737362_x_at) / Fold change /veh IL23R (11737362_x_at) / RFU TMEM51 (11727254_a_at) / Fold change /veh TMEM51 (11727254_a_at) / RFU PIWIL2 (11732686_x_at) / Fold change /veh PIWIL2 (11732686_x_at) / RFU ORM1 (11744905_x_at) / Fold change /veh ORM1 (11744905_x_at) / RFU CCDC152 (11743942_at) / Fold change /veh CCDC152 (11743942_at) / RFU ECM1 (11717891_a_at) / Fold change /veh ECM1 (11717891_a_at) / RFU IL23R (11748794_a_at) / Fold change /veh IL23R (11748794_a_at) / RFU TNFAIP8L3 (11732012_x_at) / Fold change /veh TNFAIP8L3 (11732012_x_at) / RFU MBOAT4 (11741988_at) / Fold change /veh MBOAT4 (11741988_at) / RFU 11764193_at / Fold change /veh 11764193_at / RFU TMEM53 (11763286_at) / Fold change /veh TMEM53 (11763286_at) / RFU MAGEB2 (11727129_at) / Fold change /veh MAGEB2 (11727129_at) / RFU TMEM200A (11744735_a_at) / Fold change /veh TMEM200A (11744735_a_at) / RFU CCDC152 (11751479_a_at) / Fold change /veh CCDC152 (11751479_a_at) / RFU FAM211A (11726209_a_at) / Fold change /veh FAM211A (11726209_a_at) / RFU RGS16 (11746705_a_at) / Fold change /veh RGS16 (11746705_a_at) / RFU VCAN (11755009_s_at) / Fold change /veh VCAN (11755009_s_at) / RFU RHOB (11743442_s_at) / Fold change /veh RHOB (11743442_s_at) / RFU RGS16 (11720943_a_at) / Fold change /veh RGS16 (11720943_a_at) / RFU RGS16 (11720944_at) / Fold change /veh RGS16 (11720944_at) / RFU, VPS4B / Fold change vs veh, VPS4B / RFU, CREB1 / Fold change vs veh, CREB1 / RFU, DNAJC13 / Fold change vs veh, DNAJC13 / RFU, GNAQ / Fold change vs veh, GNAQ / RFU, CDK5R1 / Fold change vs veh, CDK5R1 / RFU, ZRANB3 / Fold change vs veh, ZRANB3 / RFU, CUL4A / Fold change vs veh, CUL4A / RFU, CCNY / Fold change vs veh, CCNY / RFU, UFL1 / Fold change vs veh, UFL1 / RFU, COG3 / Fold change vs veh, COG3 / RFU, DIAPH2 / Fold change vs veh, DIAPH2 / RFU, SKA2 / Fold change vs veh, SKA2 / RFU, AFF3 / Fold change vs veh, AFF3 / RFU, LMF1 / Fold change vs veh, LMF1 / RFU, IPO11 / Fold change vs veh, IPO11 / RFU, DFFB / Fold change vs veh, DFFB / RFU, FOXP1 / Fold change vs veh, FOXP1 / RFU, CARD8 / Fold change vs veh, CARD8 / RFU, STRN3 / Fold change vs veh, STRN3 / RFU, ADK / Fold change vs veh, ADK / RFU, RASSF2 / Fold change vs veh, RASSF2 / RFU, WIPF1 / Fold change vs veh, WIPF1 / RFU, LARP1B / Fold change vs veh, LARP1B / RFU, RASA1 / Fold change vs veh, RASA1 / RFU, RB1 / Fold change vs veh, RB1 / RFU, PPFIA1 / Fold change vs veh, PPFIA1 / RFU, MAT2A / Fold change vs veh, MAT2A / RFU, CCT5 / Fold change vs veh, CCT5 / RFU, WDR92 / Fold change vs veh, WDR92 / RFU, CUX1 / Fold change vs veh, CUX1 / RFU, TTC7A / Fold change vs veh, TTC7A / RFU, TMEM135 / Fold change vs veh, TMEM135 / RFU, DEPTOR / Fold change vs veh, DEPTOR / RFU, CPM / Fold change vs veh, CPM / RFU, DNAJB6 / Fold change vs veh, DNAJB6 / RFU, CACNA2D3 / Fold change vs veh, CACNA2D3 / RFU, DTX4 / Fold change vs veh, DTX4 / RFU, TFCP2 / Fold change vs veh, TFCP2 / RFU, GMCL1 /// GMCL1P1 / Fold change vs veh, GMCL1 /// GMCL1P1 / RFU, AEBP2 / Fold change vs veh, AEBP2 / RFU, SNHG1 /// SNORD22 /// SNORD25 /// SNORD26 /// SNORD27 /// SNORD28 /// SNORD29 /// SNORD31 / Fold change vs veh, SNHG1 /// SNORD22 /// SNORD25 /// SNORD26 /// SNORD27 /// SNORD28 /// SNORD29 /// SNORD31 / Fold change (Aza/veh), C12orf56 (ProbeSet 11735607_a_at) / Fold change (ACY-1035/veh), C12orf56 (ProbeSet 11735607_a_at) / Fold change (Aza/veh), FGFR1OP (ProbeSet 11751329_s_at) / Fold change (ACY-1035/veh), FGFR1OP (ProbeSet 11751329_s_at) / Fold change (Aza/veh), VPS36 (ProbeSet 11739960_a_at) / Fold change (ACY-1035/veh), VPS36 (ProbeSet 11739960_a_at) / RFU SYPL1 (11715823_x_at) / Fold change /veh SYPL1 (11715823_x_at) / RFU IGFBP7 (11715501_s_at) / Fold change /veh IGFBP7 (11715501_s_at) / RFU REEP3 (11722064_at) / Fold change /veh REEP3 (11722064_at) / RFU IGLL1 (11728026_x_at) / Fold change /veh IGLL1 (11728026_x_at): dose or concentration left out as unconfirmed. Conditions: ProbeSet 11728879_at; LIST B.

The structures appear in SMILES notation.

`Nc1ccc(-c2cccs2)cc1NC(=O)c1ccc2c(c1)cc(C1CC1)n2CCN1CCOCC1` [ACY-1035]: the “Fold change vs veh, PPP3R1” value was 0.99.
